Source: patent US20070059720A9 (priority 2004, published 2007)

Columns and labels:
MCF-7-MKP3 xenografts = assay: Xenograft growth of MCF-7 vector control and MKP3-transfected cells in athymic nude mice; format: in vivo
Method: MCF-7 vector control and MKP3-transfected cells were established as xenografts in ovariectomized 5- to 6-week-old BALB/c athymic nude mice (Harlan Sprague Dawley, Madison, Wis.) supplemented with 0.25-mg 21-day-release E2 pellets (Innovative Research, Sarasota, Fla.) by inoculating the mice subcutaneously with 5×10^6 cells, as described previously (Osborne et al., 1995). […] Tumor growth was assessed and tumor volumes were measured as described previously (Osborne et al., 1995). Mice were anesthetized with isoflurane before tumor removal; tumor tissues were kept at […] for later analyses. Animal care was in accordance with institutional guidelines.
To analyze the endocrine sensitivity of the MKP3-overexpressing cells in more detail in vivo, the ability of MCF-7-vector control 1 and MCF-7-MKP3-2 transfectants to form tumors in athymic mice was examined. Xenografts were established in ovariectomized mice supplemented with estrogen for 21 days. […] This was examined by fitting the data in an exponential growth model, and testing whether growth rates were different between the groups; the analyses were done separately for estrogen-treated (FIG. 4C, left panel) and Tam-treated animals (right panel). There was no difference in the estrogen-stimulated growth of the MCF-7-vector control and MKP3-overexpressing cells (P=0.52).

ERK 1,2 MAPK = assay: Immunoblot of phospho-MAPK in MCF-7 transfectants; format: cell-based, human; conditions: MKP3-overexpressing MCF-7 cells; 2 hours, 100 nM
Method: (§1) Cells grown in 100 mm dishes were starved in phenol red-free (PRF), serum-free MEM (Specialty Media, Phillipsburg, N.J.) for 48 hours, and were then treated for 2 hours with vehicle (ethanol), estrogen (100 nM, 20), or OHT (100 nM). After treatment, cells were rinsed twice with ice-cold phosphate-buffered saline (PBS) and were then lysed immediately with 200 μl of cell lysis buffer (20 mM Tris HCl, pH 7.4, 150 mM NaCl, 1 mM B-glycerophosphate, 1 mM sodium orthovanadate, and 10% glycerol plus 1:100 proteinase inhibitor cocktail III) (Calbiochem, LaJolla, Calif.) per 100 mm tissue culture. The cell lysates were cleared by centrifugation at 16,100×g for 10 minutes at 4° C. Protein concentration was determined with the BCA Protein Assay kit (Pierce, Rockfold, Ill.) according to the manufacturer's directions. Equal amount of cell extracts were resolved under denaturing conditions by electrophoresis in 8-10% polyacrylamide gels containing sodium dodecyl sulfate (SDS-PAGE), and transferred to nitrocellulose membranes by electroblotting (Schleicher & Schuell, Keene, NH). After blocking of the transferred nitrocellulose membrane with TBST (20 mM Tris pH 7.6, 150 mM NaCl, 0.1% Tween-20) supplemented with 5% non-fat milk for 1 hour at room temperature, the membrane was incubated with primary antibodies either for 1 hour at room temperature (anti-ERα, 1:100 dilution; anti-AIB1, 1:100 dilution; anti-ERK2, 1:500 dilution; anti-Cyclin D1,1:500 dilution; anti-PR, C-19, 1:200 dilution; anti-p190, 1:1000 dilution; anti-V5, 1:5000 dilution), or overnight at 4° C. (anti-phospho MAPK, 1:1000 dilution; anti-phosphor-Ser118-ERα; 1:1000 dilution; MAPK p42/44, 1:1000 dilution), incubated with secondary antibodies for 1 hour at room temperature and then developed with Enhanced Chemiluminescence Reagents (Amersham Pharmacia Biotech, Piscataway, N.J.).
MAPK activity is tightly regulated by phosphorylation and dephosphorylation. MKP3 participates in a bidirectional regulatory loop with ERK2 MAPK, whereby ERK2 substrate binding is associated with catalytic activation of MKP3, and activated MKP3 negatively regulates pERK2 (Camps et al., 1998). […] Immunoblot analysis with anti-V5 was used to detect ectopic MKP3 expression in the two MKP3 transfectants (FIG. 5A, top panel). FIGS. 5B and 5C provide quantitation of results in FIG. 5A.

[1] = tested on: progesterone receptor (PR) A and B forms; assay: Immunoblot of PR-A and PR-B in MCF-7 transfectants; format: cell-based, human
Method: as §1
As expected with two hours of estrogen treatment, no induction of the two PR isoforms were detected in either the control vector (Con 1 and 2), or in the MKP3-transfected cells (FIG. 11A). […]

[2] = tested on: MCF-7 vector control cells; assay: Anchorage-independent soft agar colony formation, MCF-7 vector control cells; format: cell-based, human; conditions: MCF-7 vector control cells; 1 nM estradiol or 100 nM 4-OH-Tam; 14 days
Method: Cells were starved for 2 days in PRF MEM (InVitrogen) supplemented with 5% fetal bovine serum (FBS, Summit Biotechnology, Fort Collins, Colo.), 6 ng/ml insulin, 200 units/ml penicillin, and 200 μg/ml streptomycin. Soft agar assays were performed in sixwell plates. Into each well, 1.5 ml of prewarmed (50° C.) 0.7% SeaPlaque agarose (FMC, Rockland, Me.) was added and dissolved in PRF MEM supplemented with 5% charcoal stripped FBS (Summit, Fort Collins, Colo.) to serve as the bottom layer, and allowed to solidify at 4° C. until to use. 0.5×10^4 cells as a single cell suspension were suspended in prewarmed (37° C.) of the same media, 4 ml of 0.5% SeaPlaque agarose was then added, and this suspension then plated as the top layer by adding it dropwise to the solidified bottom layer plates. Plates were cooled for 2 hours, and then transferred to a 37° C. humidified incubator. Two days after plating, media containing control vehicle, 1 nM estradiol, 100 nM 4-OH-Tam, 100 nM OHT plus 10 nM ICI, or 100 nM OHT plus 20 nM […] was added to the top cell layer, and the appropriate media was replaced every two days. After 14 days, the colonies were fixed, and the colony number of colonies >50 cells from quadruplicate assays were then counted. The data shown is the mean colony number of four plates, and is representative of two independent experiments.
In pancreatic cells, ectopic expression of MKP3 is reported to result in a suppression of cell growth (Fuqua et al., 2003). Thus, the growth characteristics of the MCF-7 stable MKP3 transfectants under different hormonal conditions were investigated using anchorageindependent soft agar assay (FIG. 4B).

ERα = assay: Immunoblot of phospho-S118 ERα and total ERα in MCF-7 transfectants; format: cell-based, human; conditions: for total ERα protein level: control transfected and MKP3 overexpressing cells
Method: as §1

SMILES: C[C@]12CC[C@@H]3c4ccc(O)cc4CC[C@H]3[C@@H]1CC[C@@H]2O [E2, 17β-Estradiol]
- tumor growth rate, MKP3-overexpressing versus vector control xenografts (MCF-7-MKP3 xenografts; estrogen-treated animals, P=0.52): no difference
- levels of pMAPK (ERK 1,2 MAPK): lowest
- induction of the two PR isoforms ([1]; two hours of treatment, control vector and MKP3-transfected cells): no induction
- number of colonies in soft agar [2]: increased the number of colonies
- total ERα protein level (ERα): Down regulation

SMILES: CC/C(=C(\c1ccccc1)c1ccc(OCCN(C)C)cc1)c1ccccc1 [Tam, tamoxifen]
- tumor growth rate, MKP3-expressing versus vector control xenografts (MCF-7-MKP3 xenografts; estrogen withdrawal plus tamoxifen citrate 500 μg/animal s.c. 5 days/week, P=0.047): significantly increased
- levels of pMAPK (ERK 1,2 MAPK): highest activation of MAPK
- PR-B levels ([1]; two MKP3 transfectants, not observed in control MCF-7 transfectants): striking diminution
- number of colonies in soft agar [2]: reduced the number of colonies
- phosphorylation at ERα serine 118 (ERα; MKP3 transfectants, 2 hours): highly induced
- total ERα protein level (ERα): stabilization
